Results from article PMC3615092, “Identification, Design and Bio-Evaluation of Novel Hsp90 Inhibitors by Ligand-Based Virtual Screening” (PLoS ONE, 2013).

Tests used:
Hsp90 [1] = molecular target: T1, Hsp90 (Homo sapiens, UniProt P07900); assay: ATP hydrolysis inhibition, ADP Hunter Plus (ADP fluorescence) assay; type: biochemical; conditions: by ADP fluorescence assay
T1 construct: The region encoding full-length Hsp90 was subcloned into pET28a; inferred from the pET28a vector and Ni-NTA purification; made in house; host or cells: E. coli
Procedure: The first and last rows of the 96-well plate contained the appropriate concentration of DMSO were used as blank control. ATP was dissolved in the assay buffer to give a stock concentration of 2.5 mM and stored at room temperature. A 10 μL aliquot of ATP solution was added to each well to give a final assay concentration of 1 mM. Before the usage, Hsp90 protein was thawed on ice and suspended in chilled assay buffer to a stock concentration of 0.45 mg/mL, and the solution was kept on ice. […] The plates were shaken for approximately 2 min and incubated for 3 h at 37°C. The Discover RX ADP Hunter^TM Plus Assay kit (Discoverx, Fremont, CA) was used following the manufacturer's instructions. ATPase reactions were carried out after 3 h at 37°C temperature in presence of different concentrations of compounds. ADP generation was measured using Varioskan multimode microplate spectrophotometer (540 nm excitation and 620 nm emission). […] The background reaction rate was measured in a reaction lacking enzyme or substrate and subtracted from the experimental rates.

Hsp90 [2] = molecular target: T1, Hsp90; assay: Malachite green assay of Hsp90 ATPase activity; type: biochemical; conditions: by malachite green assay
Procedure: The region encoding full-length Hsp90 was subcloned into pET28a. Protein expression in E. coli cells were induced with 0.5 mM IPTG. Cells were harvested after 20h of growth at 16°C and then disrupted by sonication. The soluble lysate was clarified by centrifugation and applied to a Ni^2+-nitrilo-triacetic acid (NTA) agarose column in a buffer (50 mM Tris-Cl, 300 mM NaCl, 10 mM Imidazole, 10% [v/v] Glycerol, 10 mM PMSF, 10 mM DTT). Hsp90 Protein was eluted with a linear gradient of 20–1000 mM imidazole. Hsp90 was identified by SDS-PAGE, and the high concentrated fraction was dialyzed against ATPase buffer (20 mM Tris-Cl, pH 7.5; 6 mM MgCl2; 20 mM KCl) and then aliquoted, frozen in liquid nitrogen, stored at −80°C.
The test compounds were diluted from mother plates (10 mM in 100% (v/v) DMSO) into daughter plates (200 μM in 2.0% (v/v) DMSO); 5 μL of test compound solution was added to each well (equivalent to a final concentration of 40 μM) of the 96-well assay plate. The first and last rows of the 96-well plate contained the appropriate concentration of DMSO were used as blank control. ATP was dissolved in the assay buffer to give a stock concentration of 2.5 mM and stored at room temperature. A 10 μL aliquot of ATP solution was added to each well to give a final assay concentration of 1 mM. Before the usage, Hsp90 protein was thawed on ice and suspended in chilled assay buffer to a stock concentration of 0.45 mg/mL, and the solution was kept on ice. The incubation was started by adding 10 μL of the stock Hsp90 to each well (except for the background wells which received 10 μL of assay buffer), giving a final assay volume of 25 μL. The plates were shaken for approximately 2 min and incubated for 3 h at 37°C.
The assay procedures were based on the literatures [33]–[35]. […] The reagent is initially dark brown, but on standing for ∼2 h at room temperature changes to a golden yellow and is ready for use. The assay buffer was 100 mM Tris–HCl, 20 mM KCl, 6 mM MgCl2, pH 7.4.
To stop the ATPase reactions, 80 μL of the malachite green reagent was added to each well.

HCT116 = assay: Anti-proliferation MTT assay; type: cell-based; conditions: Homo sapiens, HCT-116, 48 h
Procedure: (§1) Cell viabilities were measured by a colorimetric assay using 3-(4, 5-dimethylthiaz-ol-2-yl)-2,5-diphenyltetrazoliumbromide (MTT, Sigma, Ltd.) as described previously. Experiments were carried out in triplicate in a parallel manner for each concentration of target compounds and the results were presented as mean ± SE. Control cells were given only culture media. After incubation for 48 h, absorbance (A) was measured at 570 nm. Survival ratio (%) was calculated using the following equation: survival ratio (%) = (Atreatment/Acontrol) × 100%.

MDA-MB-231 = assay: Anti-proliferation MTT assay; type: cell-based; conditions: Homo sapiens, MDA-MB-231, 48 h
Procedure: as §1

HepG2 = assay: Anti-proliferation MTT assay; type: cell-based; conditions: Homo sapiens, HepG2, 48 h
Procedure: as §1

A549 = assay: Anti-proliferation MTT assay; type: cell-based; conditions: Homo sapiens, A549, 48 h
Procedure: as §1

SK-BR-3 = assay: Anti-proliferation MTT assay; type: cell-based; conditions: Homo sapiens, SK-BR-3, 48 h
Procedure: as §1

MCF-7 = assay: Anti-proliferation MTT assay; type: cell-based; conditions: Homo sapiens, MCF7, 48 h
Procedure: as §1

Hsp70 = molecular target: T2, Hsp70 (Homo sapiens, UniProt P0DMV8); assay: Hsp70 ATPase activity assay (ADP Hunter Plus); type: biochemical
T2 construct: purchased Enzo Life science ALX-201-214-C025
T2 sequence (P0DMV8 whole entry): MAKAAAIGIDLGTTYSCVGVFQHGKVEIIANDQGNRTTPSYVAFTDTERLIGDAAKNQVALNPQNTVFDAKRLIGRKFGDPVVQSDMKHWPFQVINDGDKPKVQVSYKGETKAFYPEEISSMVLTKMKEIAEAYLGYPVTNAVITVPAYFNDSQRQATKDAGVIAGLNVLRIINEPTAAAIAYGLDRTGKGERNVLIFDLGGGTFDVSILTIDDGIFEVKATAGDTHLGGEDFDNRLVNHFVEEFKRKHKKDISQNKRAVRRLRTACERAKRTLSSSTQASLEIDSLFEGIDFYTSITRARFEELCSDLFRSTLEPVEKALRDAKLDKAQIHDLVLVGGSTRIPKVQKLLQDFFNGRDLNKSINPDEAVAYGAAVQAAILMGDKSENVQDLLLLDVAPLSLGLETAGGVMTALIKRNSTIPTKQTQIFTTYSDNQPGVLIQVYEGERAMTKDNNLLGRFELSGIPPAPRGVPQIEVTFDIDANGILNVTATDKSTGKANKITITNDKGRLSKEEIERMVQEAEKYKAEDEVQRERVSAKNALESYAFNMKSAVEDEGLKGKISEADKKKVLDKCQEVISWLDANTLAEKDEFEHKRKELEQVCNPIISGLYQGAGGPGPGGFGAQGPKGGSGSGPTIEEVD
Source text: The following materials were used for the biological evaluation: The PET-28a HSP90 expression vector was constructed. The Ni^2+-nitrilo-triacetic acid (NTA) agarose was purchased from General Electric (USA). […] Isopropyl-1-thio-d-galactopyranoside (IPTG) was purchased from Sigma (St. Lousi. MO). Antibodies of β-Actin, Hsp70, Hsp90, c-Raf, Akt, Src, Phospho-Src, ERK and Her-2 were purchased from Cell Signaling Technology (Danvers, MA). Anti-p-Akt(S473) was purchased from Signalway Antibody (Baltimore, MD). HIF-1α antibody was purchased from R&D systems. The stock solution of Hsp90 was prepared in a 20 mM Tris-Cl buffer with a pH 7.4, and concentration was fixed at 5.0 μM. […] The screened out compounds were purchased from SPECS and dissolved in DMSO (Sigma, St. Louis, MO) to make a final concentration of 10^−2 mol/L and were stored at −20°C. […] The water used in the experiments was thrice-distilled and all other materials were of analytical reagent grade.
Hsp70 ATPase activity was measured using Discover RX ADP Hunter^TM Plus Assay kit assay as descripted in the manufacturer's instructions. Breifly, Hsp70 (3 μM) was incubated with 1 mM ATP in 100 mM Tris pH 7.4 at 37°C for 3 h in the presence or absence of various concentrations of test compounds. ADP generation was measured using Varioskan multimode microplate spectrophotometer (540 nm excitation and 620 nm emission). Fluorescence intensity values measured for Hsp70 without any testing compound was assumed as 100% of enzyme activity. The background reaction rate was measured in a reaction lacking enzyme or substrate and subtracted from the experimental rates.

IC50 (Hsp90 [1]): 2.83 µM | IC50 (Hsp90 [2]): 3.89 ± 0.54 µM | IC50 (HCT116): 3.63 µM | IC50 (MDA-MB-231): 14.6 µM | IC50 (HepG2): 96.6 µM | IC50 (A549): 0.83 µM | IC50 (SK-BR-3): 3.32 µM | IC50 (MCF-7): 2.01 µM | IC50 (Hsp70; ADP Hunter Plus assay): 43.8 ± 4.38 µM | selectivity HSP90 over HSP70 (Hsp70; ratio of IC50 HSP70 / HSP90, ADP fluorescence assay): over 15 times
SMILES: COc1ccccc1N1CCN(CC(O)COCCOc2ccc(Br)cc2)CC1 (stereo not shown) [Compound S13]
